In PubChem BioAssay AID248 (DTP/NCI, 2004):
Values joined by “and” are separate entries in the source; they are usually repeats but may differ in a detail not shown here. Equal values may be shown once. Inconclusive results and toxic doses are left out.

System: L1210 leukemia ip in BDF1 mice, survival T/C
Assay: NCI In Vivo Anticancer Drug Screen. Data for tumor model L1210 Leukemia (intraperitoneal) in B6D2F1 (BDF1) mice
Conditions: endpoint: mean survival time, higher = longer survival
Outline: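 Antitumor effect is assessed in tumor-bearing animals. Survival in the compound arm is compared with a vehicle-dosed control arm and expressed as their quotient.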

[1] = dose: 100.0 mg/kg/injection, schedule: Q04DX003 (ip), vehicle: saline
[2] = dose: 200.0 mg/kg/injection, schedule: Q04DX003 (ip), vehicle: saline
[3] = dose: 400.0 mg/kg/injection, schedule: Q04DX003 (ip), vehicle: saline
[4] = dose: 100.0 mg/kg/injection, schedule: Q01DX009 (ip), vehicle: saline with Tween-80
[5] = dose: 200.0 mg/kg/injection, schedule: Q01DX009 (ip), vehicle: saline with Tween-80
[6] = dose: 400.0 mg/kg/injection, schedule: Q01DX009 (ip), vehicle: saline with Tween-80
[7] = dose: 100.0 mg/kg/injection, schedule: Q04DX003 (ip), vehicle: Klucel (hydroxypropylcellulose) (HPC)
[8] = dose: 200.0 mg/kg/injection, schedule: Q04DX003 (ip), vehicle: Klucel (hydroxypropylcellulose) (HPC)
[9] = dose: 400.0 mg/kg/injection, schedule: Q04DX003 (ip), vehicle: Klucel (hydroxypropylcellulose) (HPC)
[10] = dose: 100.0 mg/kg/injection, schedule: Q01DX009 (ip), vehicle: Klucel (hydroxypropylcellulose) (HPC)
[11] = dose: 200.0 mg/kg/injection, schedule: Q01DX009 (ip), vehicle: Klucel (hydroxypropylcellulose) (HPC)
[12] = dose: 400.0 mg/kg/injection, schedule: Q01DX009 (ip), vehicle: Klucel (hydroxypropylcellulose) (HPC)
[13] = dose: 100.0 mg/kg/injection, schedule: Q01DX001 (ip), vehicle: saline with Tween-80
[14] = dose: 200.0 mg/kg/injection, schedule: Q01DX001 (ip), vehicle: saline with Tween-80
[15] = dose: 400.0 mg/kg/injection, schedule: Q01DX001 (ip), vehicle: saline with Tween-80
[16] = dose: 50.0 mg/kg/injection, schedule: Q01DX009 (ip), vehicle: saline with Tween-80
[17] = dose: 100.0 mg/kg/injection, schedule: Q04DX003 (ip), vehicle: saline with Tween-80
[18] = dose: 200.0 mg/kg/injection, schedule: Q04DX003 (ip), vehicle: saline with Tween-80
[19] = dose: 50.0 mg/kg/injection, schedule: Q01DX001 (ip), vehicle: saline
[20] = dose: 100.0 mg/kg/injection, schedule: Q01DX001 (ip), vehicle: saline
[21] = dose: 400.0 mg/kg/injection, schedule: Q04DX003 (ip), vehicle: saline with Tween-80

CC#CCOCC1CNC(=O)O1 (configuration not stated)
T/C (dose: 25.0 mg/kg/injection, schedule: Q01DX009 (ip), vehicle: saline): 98 % of control
T/C (dose: 25.0 mg/kg/injection, schedule: Q04DX003 (ip), vehicle: saline): 105 % of control
T/C (dose: 50.0 mg/kg/injection, schedule: Q01DX009 (ip), vehicle: saline): 93 % of control
T/C (dose: 50.0 mg/kg/injection, schedule: Q04DX003 (ip), vehicle: saline): 97 % of control
T/C (dose: 100.0 mg/kg/injection, schedule: Q01DX009 (ip), vehicle: saline): 93 % of control
T/C [1]: 97 % of control
T/C (dose: 200.0 mg/kg/injection, schedule: Q01DX009 (ip), vehicle: saline): 102 % of control
T/C [2]: 103 % of control
T/C (dose: 400.0 mg/kg/injection, schedule: Q01DX009 (ip), vehicle: saline): 104 % of control
T/C [3]: 103 % of control

CC1CC2(C)C(CC1=O)CC(C)C1C3CCC(O)C3(C)CCC12 (configuration not stated)
T/C [4]: 92 % of control
T/C [5]: 96 % of control
T/C [6]: 94 % of control

O=C(COc1cc(Cl)c(Cl)cc1Cl)OCCOc1cc(Cl)c(Cl)cc1Cl
T/C (dose: 7.5 mg/kg/injection, schedule: Q01DX001 (ip), vehicle: saline): 97 % of control
T/C (dose: 15.0 mg/kg/injection, schedule: Q01DX001 (ip), vehicle: saline): 95 % of control
T/C (dose: 30.0 mg/kg/injection, schedule: Q01DX001 (ip), vehicle: saline): 93 % of control

CC(C)=C1C(=O)ON(c2ccccc2)C1=O
T/C (dose: 50.0 mg/kg/injection, schedule: Q01DX001 (ip), vehicle: Klucel (hydroxypropylcellulose) (HPC)): 100 % of control
T/C (dose: 100.0 mg/kg/injection, schedule: Q01DX001 (ip), vehicle: Klucel (hydroxypropylcellulose) (HPC)): 100 % of control
T/C [7]: 105 % of control
T/C (dose: 200.0 mg/kg/injection, schedule: Q01DX001 (ip), vehicle: Klucel (hydroxypropylcellulose) (HPC)): 105 % of control
T/C [8]: 110 % of control
T/C (dose: 400.0 mg/kg/injection, schedule: Q01DX001 (ip), vehicle: Klucel (hydroxypropylcellulose) (HPC)): 104 % of control
T/C [9]: 105 % of control

BrC1CCCCCC(Br)C12OCCO2 (configuration not stated)
T/C [10]: 95 % of control
T/C [7]: 102 % of control
T/C [11]: 98 % of control
T/C [8]: 104 % of control
T/C [12]: 101 % of control
T/C [9]: 100 % of control

Fc1ccc(CSc2ncnc3c2ncn3C2CCCCO2)cc1 (configuration not stated)
T/C (dose: 3.0 mg/kg/injection, schedule: Q01DX015 (ip), vehicle: carboxymethylcellulose (CMC)): 97 % of control
T/C (dose: 6.0 mg/kg/injection, schedule: Q01DX015 (ip), vehicle: carboxymethylcellulose (CMC)): 97 % of control
T/C (dose: 12.0 mg/kg/injection, schedule: Q01DX015 (ip), vehicle: carboxymethylcellulose (CMC)): 98 % of control
T/C (dose: 25.0 mg/kg/injection, schedule: Q01DX015 (ip), vehicle: carboxymethylcellulose (CMC)): 102 % of control
T/C (dose: 50.0 mg/kg/injection, schedule: Q01DX015 (ip), vehicle: carboxymethylcellulose (CMC)): 101 % of control
T/C (dose: 100.0 mg/kg/injection, schedule: Q01DX001 (ip), vehicle: carboxymethylcellulose (CMC)): 96 % of control
T/C (dose: 100.0 mg/kg/injection, schedule: Q01DX015 (ip), vehicle: carboxymethylcellulose (CMC)): 103 % of control
T/C (dose: 200.0 mg/kg/injection, schedule: Q01DX001 (ip), vehicle: carboxymethylcellulose (CMC)): 96 % of control
T/C (dose: 200.0 mg/kg/injection, schedule: Q01DX015 (ip), vehicle: carboxymethylcellulose (CMC)): 119 % of control
T/C (dose: 400.0 mg/kg/injection, schedule: Q01DX001 (ip), vehicle: carboxymethylcellulose (CMC)): 102 % of control
T/C (dose: 400.0 mg/kg/injection, schedule: Q01DX015 (ip), vehicle: carboxymethylcellulose (CMC)): 166 % of control
T/C (dose: 800.0 mg/kg/injection, schedule: Q01DX001 (ip), vehicle: carboxymethylcellulose (CMC)): 102 % of control
T/C (dose: 1600.0 mg/kg/injection, schedule: Q01DX001 (ip), vehicle: carboxymethylcellulose (CMC)): 112 % of control

CC1(C)N=C(c2ccccc2)C2(c3ccccc3)N1C2(C)C (configuration not stated)
T/C (dose: 6.0 mg/kg/injection, schedule: Q01DX001 (ip), vehicle: Klucel (hydroxypropylcellulose) (HPC)): 92 % of control
T/C (dose: 12.0 mg/kg/injection, schedule: Q01DX001 (ip), vehicle: Klucel (hydroxypropylcellulose) (HPC)): 101 % of control
T/C (dose: 25.0 mg/kg/injection, schedule: Q01DX001 (ip), vehicle: Klucel (hydroxypropylcellulose) (HPC)): 101 % of control

CCN(CC)CCOC(=O)Nc1ccc(Cl)cc1
T/C [10]: 93 % of control
T/C [1]: 98 % of control
T/C [11]: 93 % of control
T/C [2]: 98 % of control
T/C [12]: 98 % of control

Nc1ccn(CCCOc2ccccc2)c(=O)n1
T/C [13]: 97 % of control
T/C [14]: 96 % of control
T/C [15]: 100 % of control

CCc1nc(C#N)c(N)o1
T/C (dose: 5.0 mg/kg/injection, schedule: Q01DX001 (ip), vehicle: saline): 98 % of control
T/C (dose: 10.0 mg/kg/injection, schedule: Q01DX001 (ip), vehicle: saline): 103 % of control
T/C (dose: 20.0 mg/kg/injection, schedule: Q01DX001 (ip), vehicle: saline): 97 % of control
T/C (dose: 40.0 mg/kg/injection, schedule: Q01DX001 (ip), vehicle: saline): 95 % of control
T/C (dose: 80.0 mg/kg/injection, schedule: Q01DX001 (ip), vehicle: saline): 98 % of control

NC(=O)N/C=C1\CCCOC1=O
T/C [16]: 98 % of control
T/C [4]: 93 % of control and 91 % of control
T/C [17]: 96 % of control
T/C [5]: 98 % of control and 109 % of control
T/C [18]: 104 % of control
T/C [6]: 109 % of control

COc1ccc([N+](=O)[O-])cc1NC(=O)Cc1ccccc1
T/C [4]: 107 % of control
T/C [5]: 101 % of control
T/C [6]: 91 % of control

CCCCCCCCCC(C)CCCCCCC (configuration not stated)
T/C [13]: 103 % of control
T/C [14]: 97 % of control
T/C [15]: 100 % of control

O=C1CC(NC(=O)OCc2ccccc2)C(=O)O1 (configuration not stated)
T/C [4]: 96 % of control
T/C [1]: 103 % of control
T/C [5]: 93 % of control
T/C [2]: 97 % of control
T/C [6]: 94 % of control
T/C [3]: 95 % of control

Cc1[nH]ccc2cc3nc4ccccc4c3cc12
T/C [19]: 103 % of control
T/C [20]: 104 % of control
T/C (dose: 200.0 mg/kg/injection, schedule: Q01DX001 (ip), vehicle: saline): 102 % of control
T/C (dose: 400.0 mg/kg/injection, schedule: Q01DX001 (ip), vehicle: saline): 103 % of control

COc1ccc(/C=N/NC(=O)CNC(=O)c2ccccc2)cc1
T/C (dose: 25.0 mg/kg/injection, schedule: Q01DX009 (ip), vehicle: saline with Tween-80): 93 % of control
T/C [16]: 95 % of control
T/C [4]: 91 % of control

CCCCc1ccc2nc(NC(=O)OC)[nH]c2c1
T/C (dose: 50.0 mg/kg/injection, schedule: Q01DX009 (oral), vehicle: saline with Tween-80): 99 % of control
T/C (dose: 100.0 mg/kg/injection, schedule: Q01DX009 (oral), vehicle: saline with Tween-80): 109 % of control
T/C (dose: 100.0 mg/kg/injection, schedule: Q04DX003 (oral), vehicle: saline with Tween-80): 105 % of control
T/C (dose: 200.0 mg/kg/injection, schedule: Q01DX009 (oral), vehicle: saline with Tween-80): 108 % of control
T/C [2]: 172 % of control
T/C (dose: 200.0 mg/kg/injection, schedule: Q04DX003 (oral), vehicle: saline with Tween-80): 105 % of control
T/C (dose: 300.0 mg/kg/injection, schedule: Q04DX003 (ip), vehicle: saline): 160 % of control
T/C [21]: 107 % of control
T/C (dose: 400.0 mg/kg/injection, schedule: Q04DX003 (oral), vehicle: saline with Tween-80): 114 % of control

ClCCOCCOc1ccccc1
T/C [17]: 96 % of control
T/C [18]: 100 % of control
T/C [21]: 101 % of control

NCCCCC(N)C(=O)Nc1ccc(Cc2ccc(NC(=O)C(N)CCCCN)cc2)cc1 (configuration not stated)
T/C [19]: 103 % of control
T/C [20]: 100 % of control
